In article PMC10683028 (Journal of Medicinal Chemistry, 2023):
In brackets after ≈: the same amount, converted by molar mass.

Tests used:
in vitro = conditions: PAMPA, pH 7.4
Method: (§1) In vitro ADME experiments were performed exactly as reported.[38]−[40]

physchem = conditions: aqueous medium at pH 7.4, pH 7.4
Method: as §1

[1] = pH 7.4
Method: Test compounds were prepared as 0.5 mM solutions in 50:50 acetonitrile:water and analyzed by reversed-phase HPLC-UV (wavelength 254 nm) using a Phenomenex Luna C18 100 Å 150 × 4.6 mm 5 μm column with a gradient of aqueous phase (50 mM ammonium acetate, pH 7.4) and mobile phase (acetonitrile) as described.[41],[42]

SMILES	Papp (in vitro) [×10⁻⁶ cm/s]	solubility (physchem) [µM]	CHI-logDpH7.4 [1]
COc1ccc(-c2nnc(C(=O)NCCc3ccc(C(=O)N4CC(OC)C4)cc3)o2)cc1OC [compound 104, 5-(3,4-Dimethoxyphenyl)-N-(4-(3-methoxyazetidine-1-carbonyl)phenethyl)-1,3,4-oxadiazole-2-carboxamide]	0.8	11 (≈ 5.13 µg/mL)	1.7
COc1ccc(-c2noc(C(=O)NC(C#N)Cc3ccc(C(=O)N4CC(OC)C4)cc3)n2)cc1OC (stereo not drawn) [compound 34, N-(1-Cyano-2-(4-(3-methoxyazetidine-1-carbonyl)phenyl)ethyl)-3-(3,4-dimethoxyphenyl)-1,2,4-oxadiazole-5-carboxamide]	1.5	164 (≈ 80.6 µg/mL)	2.2
COc1ccc(-c2noc(C(=O)NCCc3ccc(C(=O)N4CC(OC)C4)cc3)n2)cc1OCC1CC1 [compound 77, 3-[3-(Cyclopropylmethoxy)-4-methoxyphenyl]-N-[2-[4-(3-methoxyazetidine-1-carbonyl)phenyl]ethyl]-1,2,4-oxadiazole-5-carboxamide]	3.6	2 (≈ 1.01 µg/mL)	2.9
COc1ccc(-c2noc(C(=O)NCCc3ccc(C(=O)N4CC5(COC5)C4)cc3)n2)cc1OC [compound 18, N-(4-(2-Oxa-6-azaspiro[3.3]heptane-6-carbonyl)phenethyl)-3-(3,4-dimethoxyphenyl)-1,2,4-oxadiazole-5-carboxamide]	2.6	12 (≈ 5.74 µg/mL)	1.8
